Results on three compounds are retold here after patent US11485728B2, “Small molecules for the treatment of autoimmune diseases and cancer” (Athos Therapeutics, Inc., priority 2020, dated 2022).

Data set [1] can be described thus: In-vitro half-life in human liver microsomes. Type of data set: in vitro ADME. To be noted: Human liver microsomes 0.5 mg/mL; 1 μg/mL drug; NRS; read-out: Metabolic Half-life. The procedure: (§1) In each of the species (human, rat, mouse) of liver matrix to be tested, a working concentration of 2 μg/mL was prepared of each test article from the 0.5 mg/mL DMSO stock solution by adding 3 μL of 0.5 mg/mL test article stock solution to 747 μL of the 1 mg/mL liver matrix. Incubation was performed at 37±2° C. with gentle, continuous mixing in shaking water bath in 2.0 mL-well capacity 96-Deepwell plates (96-DWP). Samples were retrieved in duplicate at the following time points: 0, 5, 10, 15, 30 and 60 minutes. The final mixture contained 1 μg/mL of drug and 0.5 mg/mL of liver matrix. First, 50 μL of test articles in liver matrix was added to the 96-DWP and pre-warmed the mixture in the 96-DWP for 2 minutes in the 37° C. water bath. The enzymatic reaction was started by the addition of 50 μL of the corresponding 2× NADPH regenerating system (NRS) cofactor solution to all sample wells and stopped by the addition of 300 μL of stop solution (acetonitrile containing 10 ng/mL Tolbutamide as an internal standard (I.Std.). The samples were agitated for 10 minutes and then centrifuged for 20 minutes at 4500 rpm. 25 μL of supernatant was diluted with 475 μL acetonitrile containing I. Std. into a new 96-DWPs for LC-MS/MS analysis.
(§2) Half-life calculations were generated and calculated by Graphpad Prism® software. The half-life of test compound was calculated based on the first-order reaction kinetics. The data was transformed to linear regression (y=log(y) where “y” axis represents the % compound remaining at any given time with respect to time 0 minutes; “x” axis represents time in minutes) in order to calculate the half-life.
(§3) A comparison of metabolic stability in time-course incubation experiments in varying species of liver can provide information of pharmacokinetic properties of drugs attributable to species-related differences in hepatic metabolism. The results of these experiments often assist in further applications such as assessing in vitro metabolite profiling and choosing relevant species for toxicology studies based on similarities relative to the metabolic stability to the human profile. For these experiments, the test compound was tested in parallel with a positive control, Dasatinab, in an enzymatic reaction solution of each species (human and rat) of liver microsomes containing a NADPH regenerating system (NRS). The final mixture contained 1 μg/mL of drug and 0.5 mg/mL of liver matrix. Incubations were performed at 37±2° C. with gentle, continuous mixing in shaking water bath in 96-Deep well plates. The stability of the test compound is monitored using fast, specific and sensitive LC/MS/MS analysis.
In general terms: Liver microsomes are a subcellular fraction often used to study metabolism.

The subject of data set [2] is HT-29 colorectal cancer cells. Kind of data set: HT-29 cell viability (Real-Time-Glo). The data set is classed as cell-based. The note with it: Homo sapiens, HT-29; 72 hr; read-out: IC50, Cell line: HT-29. The procedure: Equal volume of 2× RealTime-Glo™ reagent (2 μl of MT Cell Viability Substrate 1,000×, and 2 μl of NanoLuc® Enzyme 1,000×, per 1 ml of media, Promega) was added to each well and cells were incubated at 37° C. Luminescence was evaluated at 72 h.
(§4) To determine the plating density for cell viability assays, for each cell line, cells were counted and diluted to final densities of 2.5, 5, 10 and 20 thousand per 100 μl of their respective growth media per well in 96 well plates. A Promega Real-Time-Glo cell viability kit was used to determine the optimal concentration for cell plating so that each cell line would be within the linear part of its growth curve after 72 hrs in culture. […] Test compounds were then added at different concentrations for the creation of six-point curve and cell density was determined using the Promega Real-Time-Glo cell viability kit after 24, 48, and 72 hrs in culture.
Specifically, the Promega Real-Time-Glo cell viability kit was used to determine the optimal concentration for cell plating so that each cell line would be within the linear part of its growth curve after 72 hrs in culture. […] Test compounds are then added at different concentrations for the creation of six-point curve and cell density is determined using the Promega Real-Time-Glo cell viability kit after 24, 48, and 72 hrs in culture. […]

A short description of data set [3]: PAMPA permeability. The note with it: PAMPA, 5 hours at RT. A general note: PAMPA measures passive passage across an artificial lipid membrane.
Data set [4] can be described thus: In-vitro half-life in mouse liver microsomes. Type of data set: in vitro ADME. The note with it: Mouse liver microsomes 0.5 mg/mL; 1 μg/mL drug; NRS; read-out: Metabolic Half-life. The procedure:
as §1, §2, §3

The test system of data set [5] is HCT-116. Kind of data set: HCT-116 cell viability (Real-Time-Glo). To be noted: Homo sapiens, 72 hr, read-out: IC50, Cell line: HCT-116. The data set is classed as cell-based. The procedure: as §4
Data set [6] is described as follows: Formulation visual stability (DMA/PG/PEG 300/water). The data set is classed as physicochemical. To be noted: 25° C., 10-11 mg/mL in DMA/PG/PEG 300/Water. The procedure:
All formulations were conducted with FDA approved excipients and with high purity material such as USP grade quality. Formulation stability of test articles are performed using HPLC purity method described within analytical section. This formula may be used for oral administration of the compounds described herein; […]. Since these compounds have high solubility in lower pH as described in the solubility study section, the intervenous delivery is performed with 100% phosphate buffer solution of pH 6.5 allowing up to 7 mg/mL concentration. The formulated test articles can be store at 4° C. Prior to dosing, it should be warmed and vortexed for about 1 min to make a homogenous solution. If needed, filter through 0.2 μM syringe filter to maintain clean and sterile.

Data set [7] is described as follows: In-vitro half-life in rat liver microsomes. Type of data set: in vitro ADME. To be noted: Rat liver microsomes 0.5 mg/mL; 1 μg/mL drug; NRS; read-out: Metabolic Half-life. The procedure: as §1, §2, §3
In data set [8] the test system is mouse. To be noted: oral; cited from earlier work.
The conditions of data set [9]: cited from earlier work.

The half-life is the time in which the quantity being followed falls by half. Broadly, the IC50 is the concentration needed to halve the response being measured. Broadly, the Papp is the rate of passage across a membrane or cell layer, normalised by area and donor concentration. Lower therefore signals slow passage. As for `COc1cc2c(NC3CCN(C4CCCCC4)CC3)nc(N3CCCN(C(C)C)CC3)nc2cc1OCCCN1CCCCC1` [Compound 402, reference compound], the half-life at 1 μg/mL in data set [1], in data set [4] and in data set [7] was > 1 h throughout. In addition, the IC50 in [2] fell in the range of 10 to 20 µM; in data set [5] it was 5 to 10 µM. The Papp at 5 h, 20 μM in data set [3] (PAMPA permeability Classification, 20 μM donor) was < 0.055 ×10⁻⁶ cm/s; in data set [3] (Permeability, Pe, 20 μM donor in PBS/MeOH 90:10) it was 0.00971 ×10⁻⁶ cm/s. The Appearance result in [6] (30 min), in [6] (1 h), in data set [6] (5 h), in data set [6] (24 h) and in data set [6] (7 d) was “clear” in each case.
The LD50 is the dose at which mortality reaches 50%. Take `CC(O)CO` (centres unmarked) [PG, propylene glycol]: the LD50 in data set [8] is 22000 mg/kg.
Regarding `O=C(O)Cc1ccccc1Nc1c(Cl)cccc1Cl` [Diclofenac], in [9], the “permeability of positive control (published)” value was “high permeability”.
